Laboratory results: patent publication US9335323B2, “Method for sorting of pluripotent cells” (KYOTO UNIVERSITY, priority 2012, dated 2016)

Tests used:
human iPS cells [1] = assay: Image-based screening: fluorescence staining of human iPS cells versus feeder cells; type: cell-based; conditions: fluorescence images, human iPS cells on SNL feeder cells, FIG. 1A
Method: Fluorescent-compound libraries were provided from Young-Tae Chang's group (Ahn, Y-H., Lee, J-S. and Chang, Y-T. J. Am. Chem. Soc. 2007, 129, 4510-4511). Human iPS cells (clone#[…]) were plated on SNL feeder cells in 96-well plate. Five days after plating, fluorescent compounds were added at the final concentration of 4 μM. After incubation overnight, fluorescence microscopic images were taken by using Carl Zeiss Axioskop.

human iPS cells [2] = assay: Flow cytometry (FACS) of mixtures of human iPS cells and feeder cells; type: cell-based
Method: Human iPS cells (clone#201B7) cells (Takahashi, K. et al. Cell 2007, 131, 861-872) were plated at a density of 2×10^5 cells/well of 6-well plate on SNL feeder cells (McMahon, A. P. and Bradley, A., Cell, 62, 1073-1085, 1990). Six days after plating, the cells were incubated with 2 μM Compound 1 (Table 2) for 3 hours (fluorescence microscopic images were taken at this point). The cells were dissociated with Accutase (Invitrogen) into single cells and stained with a-SSEA-4-Alexa647 for 30 min at room temperature. After washing, FACS (FACS Aria II) analysis was performed.

human iPS cells [3] = assay: Fluorescence microscopic imaging of partially differentiated human iPS cells (donut-shaped colonies); type: cell-based; conditions: over-grown, 4 μM, 4.5 hours
Method: Human iPS cells (clone#201B7) were plated on SNL feeder cells in 96-well plate. […] These cells were incubated with 4 μM Compound 1 for 4.5 hours at 37° C. Fluorescence microscopic images were taken by using Carl Zeiss Axioskop.

human iPS cells [4] = assay: Sub-cellular localization in human iPS cells (co-staining with MitoRed, CCCP); type: cell-based; conditions: for cells in which mitochondria are stained: human iPS cells and feeder cells; for sub-cellular localization: human iPS cells on feeder cells
Method: Human iPS cells (clone#201B7) were plated on SNL feeder cells in 24-well plate. One day after plating, the cells were incubated with 1 μM Compound 1 for 4 hours at 37° C. After removing Compound 1 by washing with PBS, the cells were incubated with 9.6 nM MitoRed for 30 min at 37° C. The cells were rinsed with PBS and kept in fresh medium (without dye). Fluorescence microscopic images were taken by using Carl Zeiss Axioinvert 100M

ABCB1 (MDR1) [5] = molecular target: T1, ABCB1 (MDR1) (Homo sapiens, UniProt P08183); assay: Accumulation of fluorescent compound in KB3-1 and KB/MDR1 cells; type: cell-based
T1 construct: expressed in transfected cells; host or cells: KB/MDR1 (derived from KB3-1)
T1 sequence (P08183 whole entry): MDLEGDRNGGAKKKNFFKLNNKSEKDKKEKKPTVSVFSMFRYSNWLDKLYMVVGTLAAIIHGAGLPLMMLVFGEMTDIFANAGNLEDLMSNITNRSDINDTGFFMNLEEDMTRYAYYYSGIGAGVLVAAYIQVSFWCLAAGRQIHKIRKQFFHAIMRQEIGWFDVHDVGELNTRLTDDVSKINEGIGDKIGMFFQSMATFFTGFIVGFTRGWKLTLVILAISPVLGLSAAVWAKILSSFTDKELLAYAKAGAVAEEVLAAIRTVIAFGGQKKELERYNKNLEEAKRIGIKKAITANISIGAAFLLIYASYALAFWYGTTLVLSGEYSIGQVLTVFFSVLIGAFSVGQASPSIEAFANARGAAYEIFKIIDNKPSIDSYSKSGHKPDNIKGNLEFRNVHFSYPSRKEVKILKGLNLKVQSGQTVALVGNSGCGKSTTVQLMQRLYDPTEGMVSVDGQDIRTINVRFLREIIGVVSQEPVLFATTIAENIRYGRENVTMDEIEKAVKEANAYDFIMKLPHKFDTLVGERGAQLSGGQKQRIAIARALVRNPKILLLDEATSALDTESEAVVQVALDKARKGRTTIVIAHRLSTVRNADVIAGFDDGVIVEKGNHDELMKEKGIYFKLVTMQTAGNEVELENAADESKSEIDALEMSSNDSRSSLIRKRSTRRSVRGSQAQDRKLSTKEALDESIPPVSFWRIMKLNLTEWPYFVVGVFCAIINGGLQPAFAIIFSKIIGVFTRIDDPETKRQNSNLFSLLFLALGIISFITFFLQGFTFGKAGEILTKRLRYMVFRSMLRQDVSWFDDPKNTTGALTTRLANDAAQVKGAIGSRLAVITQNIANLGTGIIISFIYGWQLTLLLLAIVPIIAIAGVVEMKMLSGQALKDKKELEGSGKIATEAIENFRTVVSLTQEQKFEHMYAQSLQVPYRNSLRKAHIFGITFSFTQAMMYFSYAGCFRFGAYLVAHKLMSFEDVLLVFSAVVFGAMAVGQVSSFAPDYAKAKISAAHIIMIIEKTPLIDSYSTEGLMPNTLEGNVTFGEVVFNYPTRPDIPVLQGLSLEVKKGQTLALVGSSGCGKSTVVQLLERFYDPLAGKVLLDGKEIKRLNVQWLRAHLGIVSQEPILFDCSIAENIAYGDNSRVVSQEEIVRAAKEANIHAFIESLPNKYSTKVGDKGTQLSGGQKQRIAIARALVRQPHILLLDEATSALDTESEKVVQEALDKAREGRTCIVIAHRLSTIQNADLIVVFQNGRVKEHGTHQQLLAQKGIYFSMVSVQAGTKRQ
Method: (§1) KB/MDR1, stably expressing human MDR1, and KB3-1 host cells (Ueda, K et al., PNAS 84, 3004-3008, 1987) were maintained in DMEM supplemented with 10% FBS in a humidified incubator (5% CO2) at 37° C. Cells were subcultured in 35 mm/glass base dish (IWAKI) at a density of 5×10^5 cells per dish in DMEM containing 10% FBS for 24-48 hours.

ABCB1 (MDR1) [6] = assay: as above; type: cell-based, human; conditions: KB3-1 cells with no MDR1 expression, 2 hrs
Method: as §1

ABCC1 (MRP1) = ABCC1 (MRP1) (Homo sapiens, UniProt P33527); assay: Accumulation of fluorescent compound in cells with different ABCC1 (MRP1) expression; type: cell-based; conditions: stained cells regardless of expression level
Sequence of ABCC1 (MRP1) (P33527 whole entry): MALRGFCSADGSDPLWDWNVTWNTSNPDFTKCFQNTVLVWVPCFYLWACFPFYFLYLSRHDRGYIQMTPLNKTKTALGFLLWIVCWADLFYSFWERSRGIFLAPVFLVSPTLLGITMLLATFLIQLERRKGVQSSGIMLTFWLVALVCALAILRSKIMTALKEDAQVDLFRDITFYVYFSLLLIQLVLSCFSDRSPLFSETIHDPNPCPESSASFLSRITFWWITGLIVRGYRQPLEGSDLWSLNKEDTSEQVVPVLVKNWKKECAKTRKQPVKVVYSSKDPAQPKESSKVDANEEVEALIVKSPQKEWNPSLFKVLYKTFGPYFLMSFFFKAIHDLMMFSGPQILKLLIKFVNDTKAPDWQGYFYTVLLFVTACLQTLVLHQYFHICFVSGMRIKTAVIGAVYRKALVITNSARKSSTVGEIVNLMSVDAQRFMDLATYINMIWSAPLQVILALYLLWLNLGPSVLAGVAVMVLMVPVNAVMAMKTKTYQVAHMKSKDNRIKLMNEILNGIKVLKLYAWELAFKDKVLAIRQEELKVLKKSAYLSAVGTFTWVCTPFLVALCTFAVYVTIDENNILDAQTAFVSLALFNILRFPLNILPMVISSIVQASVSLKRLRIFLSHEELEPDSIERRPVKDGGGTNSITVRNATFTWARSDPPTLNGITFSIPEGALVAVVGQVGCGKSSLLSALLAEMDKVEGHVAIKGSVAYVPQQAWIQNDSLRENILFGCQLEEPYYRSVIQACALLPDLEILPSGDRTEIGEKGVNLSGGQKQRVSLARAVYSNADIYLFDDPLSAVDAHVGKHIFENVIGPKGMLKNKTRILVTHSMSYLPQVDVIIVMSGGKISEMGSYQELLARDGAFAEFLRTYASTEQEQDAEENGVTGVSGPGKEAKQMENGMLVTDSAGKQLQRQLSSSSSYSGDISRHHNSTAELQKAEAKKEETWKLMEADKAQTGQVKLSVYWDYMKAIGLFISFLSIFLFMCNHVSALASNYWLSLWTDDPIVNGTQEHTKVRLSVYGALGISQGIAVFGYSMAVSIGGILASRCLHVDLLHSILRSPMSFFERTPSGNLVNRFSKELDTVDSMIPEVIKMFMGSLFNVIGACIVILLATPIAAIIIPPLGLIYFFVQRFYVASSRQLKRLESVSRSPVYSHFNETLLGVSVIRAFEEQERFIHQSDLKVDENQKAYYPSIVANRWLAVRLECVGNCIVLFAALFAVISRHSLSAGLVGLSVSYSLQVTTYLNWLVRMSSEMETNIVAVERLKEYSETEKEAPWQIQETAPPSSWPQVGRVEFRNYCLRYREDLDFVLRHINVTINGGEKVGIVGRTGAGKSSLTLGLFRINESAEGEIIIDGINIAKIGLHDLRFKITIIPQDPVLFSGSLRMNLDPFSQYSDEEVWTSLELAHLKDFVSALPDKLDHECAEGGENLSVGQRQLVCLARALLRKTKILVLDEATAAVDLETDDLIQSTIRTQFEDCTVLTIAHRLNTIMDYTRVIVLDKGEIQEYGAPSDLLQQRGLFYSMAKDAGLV
Method: (§2) Cells were subcultured in 35 mm/glass base dish (IWAKI) at a density of 5×10^5 cells per dish in DMEM containing 10% FBS for 24-48 hours. Then, cells were incubated in DMEM containing 10% FBS and the compounds for 2 hours at 37° C., washed with phosphate-buffered saline (PBS), and observed using a confocal microscope (LSM 700; Carl Zeiss).
(§3) MDR1-expressing model cell lines (KB/MDR1) were established from KB3-1, a cell line with no MDR1 expression. KB/MDR1 and KB3-1 were treated with Compound 1 for 2 hrs. Then, their images were observed under a fluorescent microscope (FIG. 4c, 4d). […] Similar experiments were conducted with ABCG2 and ABCC1 (MRP1).

ABCG2 = molecular target: T2, ABCG2 (Homo sapiens, UniProt Q9UNQ0); assay: Accumulation of fluorescent compound in cells with different ABCG2 expression; type: cell-based; conditions: stained cells regardless of expression level
T2 sequence (Q9UNQ0 1-655): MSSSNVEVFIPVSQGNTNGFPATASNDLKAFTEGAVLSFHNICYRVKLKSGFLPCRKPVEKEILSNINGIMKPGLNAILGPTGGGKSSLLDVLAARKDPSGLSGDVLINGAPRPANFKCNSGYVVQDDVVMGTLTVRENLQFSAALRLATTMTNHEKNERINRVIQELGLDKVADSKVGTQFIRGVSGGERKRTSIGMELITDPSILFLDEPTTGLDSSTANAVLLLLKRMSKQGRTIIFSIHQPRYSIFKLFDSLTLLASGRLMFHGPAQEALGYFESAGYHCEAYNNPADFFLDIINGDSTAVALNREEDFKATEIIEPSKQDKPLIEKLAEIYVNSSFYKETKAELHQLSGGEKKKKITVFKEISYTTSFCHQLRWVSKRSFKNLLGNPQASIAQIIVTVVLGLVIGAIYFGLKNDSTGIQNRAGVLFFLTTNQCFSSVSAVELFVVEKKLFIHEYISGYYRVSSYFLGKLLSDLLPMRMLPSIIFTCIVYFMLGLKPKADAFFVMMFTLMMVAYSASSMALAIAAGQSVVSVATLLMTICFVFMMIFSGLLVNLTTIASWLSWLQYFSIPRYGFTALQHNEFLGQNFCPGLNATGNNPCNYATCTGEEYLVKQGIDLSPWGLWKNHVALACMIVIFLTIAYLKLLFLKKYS
Method: as §2, §3

human ES cells [7] = assay: Microscopy and FACS of human ES cells and differentiated cells; type: cell-based
Method: Cells were prepared as above. After staining with 1 μM Compound 1 for 1 hour, cells were rinsed with PBS and cultured for additional 24 hours. Fluorescent microscopy was performed by using Olympus IX71 with DP72. CsA was added at the concentration of 10 μM during staining with Compound 1 and following culture until analysis. For FACS analysis, the cells were washed twice with ice-cold PBS and then dissociated with 0.25% trypsin-EDTA into a single cell suspension for direct analysis. The proportions of cells with Compound 1 were examined on a FACSCalibur flow cytometer (Becton Dickenson, Calif., USA) with reference to a baseline of untreated undifferentiated or differentiated hESCs.

human ES cells [8] = assay: Fluorescence microscopic imaging of human ES cells and retinoic acid-differentiated cells; type: cell-based; conditions: 1 μM, 2 hours
Method: The hES cell line KhES-1 was maintained as described previously (Suemori, H. et al. Biochem. Biophys. Res. Commun. 2006, 345, 926-932). To induce differentiation of hESCs, cells seeded onto Matrigel-coated plate were cultured for 4 days with 500 nM all-trans retinoic acid (Sigma R2625) in DMEM supplemented with 10% FBS. After staining with 1 μM Compound 1 for 2 hours, cells were rinsed with PBS and kept in fresh medium (without dye). Fluorescent microscopy was performed by using Olympus IX71 with DP72.

[9] = system: mitochondrial proteins of human iPS cells; assay: 2-DE and mass analysis of mitochondrial proteins labeled in human iPS cells; type: cell-based; conditions: 1 μM, 4 hours, 2-dimensional SDS-PAGE
Method: Human iPS cells were treated with the chloroacetyl derivative of Compound 1 (Compound 22) (1 μM) for 4 hours, and then washed twice with PBS. After treatment with CTK solution (Reprocell) to remove SNL feeder cells, human iPS cells were harvested with treatment of accutase. Mitochondria fraction was obtained from the cell pellet by using ProteoExtract® Cytosol/Mitochondria Fractionation kit according to the manufacturer's instruction. Isoelectric focusing (IEF) was performed by using ampholine (pH 3.5-10, Phamalyte 3-10 for IEF, GE Healthcare). Then, the IEF strips were separated on 10% SDS-PAGE gel for 2D analysis. 2D fluorescence image was acquired using the Typhoon 9400 scanner (GE healthcares) at excitation/emission wavelengths of 532 nm/580 nm. The fluorescence-labeled spots were excised from the gel for mass analysis.

[10] = doubly stained with Compound 1 and anti-SSEA-4 antibody
[11] = mixture of human iPS cells and feeder cells, 2 μM, 3 hours, flow cytometry

Compound: C/N=c1\ccc2c(-c3ccc(F)cc3)c3ccc(NC)cc3oc-2c1 [Compound 35]
- staining of human iPS cells compared with feeder cells (human iPS cells [1]): stained human iPS cells stronger than feeder cells

Compound: N=c1ccc2c(-c3ccccc3F)c3ccc(N)cc3oc-2c1 [Compound 36]
- staining of human iPS cells compared with feeder cells (human iPS cells [1]): stained human iPS cells stronger than feeder cells

Compound: N=c1ccc2c(-c3ccc(F)cc3)c3ccc(N)cc3oc-2c1 [Compound 1]
- SSEA-4-negative cells not stained by Compound 1 (human iPS cells [2]; [10]): 55.2%
- SSEA-4-positive cells also stained by Compound 1 (human iPS cells [2]; [10]): 42.4%
- specificity of staining for iPS cells (human iPS cells [2]; human iPS cells versus feeder cells): capable of staining iPS cells specifically
- Compound 1-negative population (human iPS cells [2]; [11]): 56.6%
- Compound 1-positive population (human iPS cells [2]; [11]): 43.4%
- staining of donut-shaped iPS cell colonies (human iPS cells [3]): selectively stained undifferentiated parts of those colonies but not the central parts
- staining pattern in the presence of CCCP (human iPS cells [4]; CCCP 5 μM, 1 μM, 2 hours): remained the same
- cells in which mitochondria are stained (human iPS cells [4]): only in iPS cells
- sub-cellular localization (human iPS cells [4]): overlaps with that of MitoTracker Red
- fluorescent signals in MDR1-expressing cells (ABCB1 (MDR1) [5]; KB/MDR1 cells, 2 hrs): undetectable
- substrate for ABCB1 (MDR1) (ABCB1 (MDR1) [5]; KB/MDR1 versus KB3-1): good substrate
- staining of KB3-1 cells (ABCB1 (MDR1) [6]): strongly stained
- substrate for ABCC1 (MRP1) (ABCC1 (MRP1)): not a substrate
- substrate for ABCG2 (ABCG2): not a substrate
- fluorescence of human ES cells (human ES cells [7]; 1 μM, 1 hour, microscopy): strong fluorescence
- labeling of differentiated cells in the presence of cyclosporine A (human ES cells [7]; cyclosporine A (MDR1 inhibitor) 10 μM): even the differentiated cells were labeled
- fluorescence of differentiated cells (human ES cells [7]; derived from human ES cells by retinoic acid, 1 μM, 1 hour, microscopy): little
- staining of human ES cells relative to differentiated cells (human ES cells [7]; flow cytometric analysis): ~100 times
- staining after partial differentiation by retinoic acid (human ES cells [8]; 500 nM retinoic acid 4 days): less densely stained parts of colonies
- staining of human ES cell colonies compared with feeder cells (human ES cells [8]): stained more strongly than feeder cells

Compound: ClCc1ccc(C2=c3cc4c5c(c3Oc3c2cc2c6c3CCCN6CCC2)CCC[N+]=5CCC4)cc1.[Cl-] [MitoRed, reference compound]
- cells in which mitochondria are stained (human iPS cells [4]): both in human iPS cells and feeder cells

Compound: N=c1ccc2c(-c3ccc(F)cc3)c3ccc(NCCCCCCCCCCNC(=O)CCl)cc3oc-2c1 [Compound 22]
- fluorescently labeled mitochondrial protein identified by mass-sequencing [9]: ADH1 protein
- selectivity for human iPS cells relative to Compound 1 (human iPS cells [4]; human iPS cells): slightly less than that of Compound 1
- sub-cellular localization (human iPS cells [4]): localized in mitochondria of human iPS cells
